In patent publication US20250382556A1, “MODULATION OF THE BRANCHED-CHAIN METABOLITE CONTENT OF FRUITS AND VEGETABLES” (BOARD OF TRUSTEES OF MICHIGAN STATE UNIVERSITY, priority 2024, published 2025):

Assays:
[1] = system: ripe ‘Red Delicious’ apple fruit; assay: Headspace 2-methylbutanoate esters of ripe apple fruit, time course; assay type: in vivo, Malus x domestica Borkh.; conditions: within three days of treatment
Procedure: ‘Red Delicious’ apple fruit held in refrigerated air for 5 months (see above) plus 1 day at 22° C. and at an advanced ripeness stage (‘ripe’) were treated with rimsulfuron (1 mM) with 0.2% Tween 20 on day 0 of the study and for the next three consecutive days as above described. The fruit were evaluated daily for volatile emissions (see below) for eight days. On days 0, 2, 4, and 7, representative treated and untreated fruit were selected for tissue collection for metabolite analysis (see below). On day 7, samples of fruit peel were fed, as described above, with water or 20 mM isoleucine or α-keto-β-methylvalerate.
Headspace volatiles from small tissue samples incubated in 22 mL vials were adsorbed for 30 s using a solid-phase micro extraction (SPME) fiber (65 μm PDMS-DVB; Supelco Analytical). The SPME fiber was then directly desorbed for 1 min in the injection port of a gas chromatograph (GC; HP-6890, Hewlett-Packard) coupled to a time-of-flight mass spectrometer (MS; Pegasus II, LECO). […]
Compounds were identified by comparison of the retention time and mass spectrum against authenticated reference standards and spectra (National Institute of Standards and Technology Mass Spectral Search Program Version 2.0, 2001). Volatiles were quantified by calibration with a standard of 59 authenticated, high-purity compounds (Sigma-Aldrich Co. and Fluka Chemical) including the target compounds. […]

flowering quince fruit = assay: Headspace volatile emissions of flowering quince fruit treated with AHAS inhibitor; assay type: in vivo, Chaenomeles x superba; design: key to butyl acetate emissions compared to control: —: Dash indicates no significant difference between treatments
Procedure: Whole apple fruit, freshly harvested and at an early stage of ripening (‘ripening’), were held at room temperature (22° C.) and rubbed daily with 3 mL of a freshly made 1mM solution of the inhibitor rimsulfuron (N-((4,6-dimethoxypyrimidin-2-yl)aminocarbonyl)-3-(ethylsulfonyl)-2-pyridinesulfonamide, made from DuPont MATRIX® SG, 25% w/w active ingredient; 0.1% Tween 20) or water solution containing 0.1% Tween 20 before preparation with further treatments. Flowering quince fruit were smaller than the apple fruit and had 2 mL of the control and treatment solutions applied daily at 22° C. ‘Gala’, ‘Empire’, and ‘Jonagold’ apple fruit were treated for four, nine, and seven days before further preparation, respectively. Flowering quince fruit were treated for six days before analysis. Headspace volatile emissions were monitored for three or four representative fruits during the incubation/treatment period to determine appropriate times for further treatments. During method testing, 1 mM solutions of the imidazolinone imazamox was also assessed with apple fruit (2-[4,5-dihydro-4-methyl-4-(1-methylethyl)-5-oxo-1H-imidazol-2-yl]-5-(methoxymethyl)-3-pyridinecarboxylic acid, made from RAPTOR®, 12.1% w/w active ingredient; 0.1% Tween 20).
Headspace volatiles from small tissue samples incubated in 22 mL vials were adsorbed for 30 s using a solid-phase micro extraction (SPME) fiber (65 μm PDMS-DVB; Supelco Analytical). The SPME fiber was then directly desorbed for 1 min in the injection port of a gas chromatograph (GC; HP-6890, Hewlett-Packard) coupled to a time-of-flight mass spectrometer (MS; Pegasus II, LECO). Whole fruits and banana slices were incubated for 20 min at room temperature (22° C.) in 1-L sealed Teflon jars before a 15-s, or 3-min adsorption and 1- or 2-min desorption. Adsorption times were adjusted to ensure instrument responses were in the linear range. All desorbed volatiles were cryofocused at the beginning of the column by immersing said region of the column in liquid nitrogen. After the desorption period, the run was initiated and the liquid nitrogen removed.
The conditions of the system were as follows. Injection port: 200° C., splitless, ultra-purified helium (99.999%) carrier gas, front inlet flow 1.5 mL·min^−1 constant, 10 mL·min^−1 purge flow, 11.5 mL·min^−1 total flow. Oven: initial temperature 40° C. for 0 min, ramped by 43° C.·min^−1 to 185° C. for 0 min. Column: HP-5 MS, 30 m×0.25 mm i.d., 0.25 μm film thickness (Agilent). Transfer line temperature 225° C. MS: Electron ionization (−70 eV), ion source temperature 200° C., solvent delay 50 sec, m/z range 29 to 400, detector voltage 1500 V, data collection rate 20 Hz.
Compounds were identified by comparison of the retention time and mass spectrum against authenticated reference standards and spectra (National Institute of Standards and Technology Mass Spectral Search Program Version 2.0, 2001). Volatiles were quantified by calibration with a standard of 59 authenticated, high-purity compounds (Sigma-Aldrich Co. and Fluka Chemical) including the target compounds. The standard was made by placing 0.5 μL of an equal-part mixture of the neat compounds onto a disc of filter paper before quickly placing the filter paper into a 4-L sealed flask fitted with a Mininert valve (for SPME fiber access, and allowed to vaporize for at least 6 hours. SPME adsorption and desorption times of the standard matched that of the samples quantified (e.g., 30-s adsorption, 1 min desorption when quantifying samples in 22-mL vials).
Statistical analysis was performed using SciPy (v1.6.2), RStudio (v2023.03.0+386), or Microsoft Excel (v16.89). Against a specified value: one-tailed t-test Against two treatments: paired t-test for banana, two-sample t-test for apple and flowering quince. Against more than two treatments: Tukey's test following significant ANOVA. Analyses of branched-chain amino acids were one-tailed, all other metabolites were two-tailed. […]

[2] = Dr. Banks Pink flowering quince
[3] = Dr. Banks Pink flowering quince peel, 1 mM daily, six days

CCS(=O)(=O)c1cccnc1S(=O)(=O)NC(=O)Nc1nc(OC)cc(OC)n1 [rimsulfuron, N-((4,6-dimethoxypyrimidin-2-yl)aminocarbonyl)-3-(ethylsulfonyl)-2-pyridinesulfonamide]
headspace content of 2-methylbutanoate esters, of control fruits [1]: 15.0% | butyl acetate, ethyl butanoate, estragole, or linalool versus untreated (flowering quince fruit; [2]): No difference | less 2-methylpropyl acetate and 2-methylbutyl acetate than untreated fruits (flowering quince fruit; [2]): 94.6% | more propyl acetate than untreated fruits (flowering quince fruit; [2]): 22.7 fold | 2-methylbutyl acetate (ile) emissions compared to control (flowering quince fruit; [3]): 5.2 ± 3.9% | 2-methylpropyl acetate (val) emissions compared to control (flowering quince fruit; [3]): 1.1 ± 1.4% | butyl acetate emissions compared to control (flowering quince fruit; [3]): — | propyl acetate emissions compared to control (flowering quince fruit; [3]): 2265.0 ± 869.0% | sum of anteiso- and iso-branched-chain esters emissions compared to control (flowering quince fruit; [3]): 3.0 ± 2.4%
